Test results taken from patent US11787825B2 (priority 2021, dated 2023).
≈ marks a conversion by molar mass, not a printed value. Read-outs that look alike come from different tables or passages of the source. Marks after values point to notes of the source that are not given here.

Assays:
[1] = Beagle, in vivo, po; for Dog F % (suspension): pH 2
physchem = conditions: 25 °C, thermodynamic from solid
[2] = 0.1N HCL, 1.0% DMSO, 24-hour incubation at ambient temperature, maximum theoretical compound concentration 100 μM
[3] = 1×PBS buffer (pH 7.4), 1.0% DMSO, 24-hour incubation at ambient temperature, maximum theoretical compound concentration 100 μM
[4] = fasted state simulated intestinal fluid (FaSSIF), fassif
[5] = fed state simulated intestinal fluid (FeSSIF), fessif

SMILES	pH 2 solubility [2]	pH 7 solubility [3]	Dog F % (suspension) [1]	solubility (physchem; [4])	solubility (physchem; [5])	Dog F % (solution) [1]	pH 2 solubility (pH 2)	pH 7 solubility (pH 7.4)	solubility (physchem; fassif)	solubility (physchem; fessif)
CC(C)(C#Cc1ccc(-c2ccc(Cl)c3c(N(C(=O)CCCN(CCC(=O)O)C(=O)OCOP(=O)(O)O)S(C)(=O)=O)nn(CC(F)(F)F)c23)c([C@H](Cc2cc(F)cc(F)c2)NC(=O)Cn2nc(C(F)(F)F)c3c2C(F)(F)[C@@H]2C[C@H]32)n1)S(C)(=O)=O [Compound 31, 3-((4-(N-(4-chloro-7-(2-((S)-1-(2-((3bS,4aR)-5,5-difluoro-3-(trifluoromethyl)-3b,4,4a,5-tetrahydro-1H-cyclopropa[3,4]cyclopenta[1,2-c]pyrazol-1-yl)acetamido)-2-(3,5-difluorophenyl)ethyl)-6-(3-methyl-3-(methylsulfonyl)but-1-yn-1-yl)pyridin-3-yl)-1-(2,2,2-trifluoroethyl)-1H-indazol-3-yl)methylsulfonamido)-4-oxobutyl)(((phosphonooxy)methoxy)carbonyl)amino)propanoic acid]	1 μM	79 μM	15%	2930 µg/mL (≈ 2290 µM)	902 µg/mL (≈ 705 µM)					
CN(CCCC(=O)N(c1nn(CC(F)(F)F)c2c(-c3ccc(C#CC(C)(C)S(C)(=O)=O)nc3[C@H](Cc3cc(F)cc(F)c3)NC(=O)Cn3nc(C(F)(F)F)c4c3C(F)(F)[C@@H]3C[C@H]43)ccc(Cl)c12)S(C)(=O)=O)C(=O)OCOP(=O)(O)O [Compound 32, (phosphonooxy)methyl (4-(N-(4-chloro-7-(2-((S)-1-(2-((3bS,4aR)-5,5-difluoro-3-(trifluoromethyl)-3b,4,4a,5-tetrahydro-111-cyclopropa[3,4]cyclopenta [1,2-c]pyrazol-1-yl)acetamido)-2-(3,5-difluorophenyl)ethyl)-6-(3-methyl-3-(methylsulfonyl)but-1-yn-1-yl)pyridin-3-yl)-1-(2,2,2-trifluoroethyl)-1H-indazol-3-yl)methylsulfonamido)-4-oxobutyl)(methyl)carbamate]	1 μM	100 μM		194 µg/mL (≈ 159 µM)	210 µg/mL (≈ 172 µM)	31^b %				
CC(C)(C#Cc1ccc(-c2ccc(Cl)c3c(N(C(=O)CCCNC(=O)OCOP(=O)(O)O)S(C)(=O)=O)nn(CC(F)(F)F)c23)c([C@H](Cc2cc(F)cc(F)c2)NC(=O)Cn2nc(C(F)(F)F)c3c2C(F)(F)[C@@H]2C[C@H]32)n1)S(C)(=O)=O [Compound 33, (phosphonooxy)methyl (4-(N-(4-chloro-7-(2-((S)-1-(2-((3bS,4aR)-5,5-difluoro-3-(trifluoromethyl)-3b,4,4a,5-tetrahydro-111-cyclopropa[3,4]cyclopenta[1,2-c]pyrazol-1-yl)acetamido)-2-(3,5-difluorophenyl)ethyl)-6-(3-methyl-3-(methylsulfonyl)but-1-yn-1-yl)pyridin-3-yl)-1-(2,2,2-trifluoroethyl)-1H-indazol-3-yl)methylsulfonamido)-4-oxobutyl)carbamate]	1 μM	75 μM	17%	326 µg/mL (≈ 270 µM)	300 µg/mL (≈ 248 µM)	33^b %				
CC(C)(CNC(=O)OCOP(=O)(O)O)CC(=O)N(c1nn(CC(F)(F)F)c2c(-c3ccc(C#CC(C)(C)S(C)(=O)=O)nc3[C@H](Cc3cc(F)cc(F)c3)NC(=O)Cn3nc(C(F)(F)F)c4c3C(F)(F)[C@@H]3C[C@H]43)ccc(Cl)c12)S(C)(=O)=O [Compound 41, (phosphonooxy)methyl (4-(N-(4-chloro-7-(2-((S)-1-(2-((3bS,4aR)-5,5-difluoro-3-(trifluoromethyl)-3b,4,4a,5-tetrahydro-111-cyclopropa[3,4]cyclopenta[1,2-c]pyrazol-1-yl)acetamido)-2-(3,5-difluorophenyl)ethyl)-6-(3-methyl-3-(methylsulfonyl)but-1-yn-1-yl)pyridin-3-yl)-1-(2,2,2-trifluoroethyl)-1H-indazol-3-yl)methylsulfonamido)-2,2-dimethyl-4-oxobutyl)carbamate]	1 μM	100 μM	4%	1140 µg/mL (≈ 927 µM)	440 µg/mL (≈ 356 µM)					
CC(C)(CCN(CC(=O)O)C(=O)OCOP(=O)(O)O)C(=O)N(c1nn(CC(F)(F)F)c2c(-c3ccc(C#CC(C)(C)S(C)(=O)=O)nc3[C@H](Cc3cc(F)cc(F)c3)NC(=O)Cn3nc(C(F)(F)F)c4c3C(F)(F)[C@@H]3C[C@H]43)ccc(Cl)c12)S(C)(=O)=O [Compound 43, N-(4-(N-(4-chloro-7-(2-((S)-1-(2-((3bS,4aR)-5,5-difluoro-3-(trifluoromethyl)-3b,4,4a,5-tetrahydro-1H-cyclopropa[3,4]cyclopenta[1,2-c]pyrazol-1-yl)acetamido)-2-(3,5-difluorophenyl)ethyl)-6-(3-methyl-3-(methylsulfonyl)but-1-yn-1-yl)pyridin-3-yl)-1-(2,2,2-trifluoroethyl)-1H-indazol-3-yl)methylsulfonamido)-3,3-dimethyl-4-oxobutyl)-N-(((phosphonooxy)methoxy)carbonyl)glycine]	2 μM	100 μM	23%	2900 µg/mL (≈ 2250 µM)	> 5770 µg/mL					
Cc1cc(CC(=O)O)c(C(C)(C)CC(=O)N(c2nn(CC(F)(F)F)c3c(-c4ccc(C#CC(C)(C)S(C)(=O)=O)nc4[C@H](Cc4cc(F)cc(F)c4)NC(=O)Cn4nc(C(F)(F)F)c5c4C(F)(F)[C@@H]4C[C@H]54)ccc(Cl)c23)S(C)(=O)=O)c(OP(=O)(O)O)c1 [Compound 44]			27%				1/100 μM	1/100 μM	2870 µg/mL (≈ 2210 µM)	460 µg/mL (≈ 355 µM)
CC(C)(Cc1ccccc1OP(=O)(O)O)C(=O)N(c1nn(CC(F)(F)F)c2c(-c3ccc(C#CC(C)(C)S(C)(=O)=O)nc3[C@H](Cc3cc(F)cc(F)c3)NC(=O)Cn3nc(C(F)(F)F)c4c3C(F)(F)[C@@H]3C[C@H]43)ccc(Cl)c12)S(C)(=O)=O [Compound 46, 2-(3-(N-(4-chloro-7-(2-((S)-1-(2-((3bS,4aR)-5,5-difluoro-3-(trifluoromethyl)-3b,4,4a,5-tetrahydro-1H-cyclopropa[3,4]cyclopenta[1,2-c]pyrazol-1-yl)acetamido)-2-(3,5-difluorophenyl)ethyl)-6-(3-methyl-3-(methylsulfonyl)but-1-yn-1-yl)pyridin-3-yl)-1-(2,2,2-trifluoroethyl)-1H-indazol-3-yl)methylsulfonamido)-2,2-dimethyl-3-oxopropyl)phenyl dihydrogen phosphate]			10%				1/66 μM	1/66 μM	700 µg/mL	> 2150 µg/mL
Cc1cc(C(=O)O)cc(OP(=O)(O)O)c1C(C)(C)CC(=O)N(c1nn(CC(F)(F)F)c2c(-c3ccc(C#CC(C)(C)S(C)(=O)=O)nc3[C@H](Cc3cc(F)cc(F)c3)NC(=O)Cn3nc(C(F)(F)F)c4c3C(F)(F)[C@@H]3C[C@H]43)ccc(Cl)c12)S(C)(=O)=O [Compound 49, 4-(4-(N-(4-chloro-7-(2-((S)-1-(2-((3bS,4aR)-5,5-difluoro-3-(trifluoromethyl)-3b,4,4a,5-tetrahydro-1H-cyclopropa[3,4]cyclopenta[1,2-c]pyrazol-1-yl)acetamido)-2-(3,5-difluorophenyl)ethyl)-6-(3-methyl-3-(methylsulfonyl)but-1-yn-1-yl)pyridin-3-yl)-1-(2,2,2-trifluoroethyl)-1H-indazol-3-yl)methylsulfonamido)-2-methyl-4-oxobutan-2-yl)-3-methyl-5-(phosphonooxy)benzoic acid]			20%				3/100 μM	3/100 μM	384 µg/mL (≈ 299 µM)	390 µg/mL (≈ 304 µM)
CN(C(=O)N(c1nn(CC(F)(F)F)c2c(-c3ccc(C#CC(C)(C)S(C)(=O)=O)nc3[C@H](Cc3cc(F)cc(F)c3)NC(=O)Cn3nc(C(F)(F)F)c4c3C(F)(F)[C@@H]3C[C@H]43)ccc(Cl)c12)S(C)(=O)=O)c1ncccc1CN(CC(=O)O)C(=O)OCOP(=O)(O)O [Compound 52, N-((2-(3-(4-chloro-7-(2-((S)-1-(2-((3bS,4aR)-5,5-difluoro-3-(trifluoromethyl)-3b,4,4a,5-tetrahydro-1H-cyclopropa[3,4]cyclopenta[1,2-c]pyrazol-1-yl)acetamido)-2-(3,5-difluorophenyl)ethyl)-6-(3-methyl-3-(methylsulfonyl)but-1-yn-1-yl)pyridin-3-yl)-1-(2,2,2-trifluoroethyl)-1H-indazol-3-yl)-1-methyl-3-(methylsulfonyl)ureido)pyridin-3-yl)methyl)-N-(((phosphonooxy)methoxy)carbonyl)glycine]	2 μM	100 μM	24%	1370 µg/mL (≈ 1020 µM)	> 6260 µg/mL					
CN(C(=O)N(c1nn(CC(F)(F)F)c2c(-c3ccc(C#CC(C)(C)S(C)(=O)=O)nc3[C@H](Cc3cc(F)cc(F)c3)NC(=O)Cn3nc(C(F)(F)F)c4c3C(F)(F)[C@@H]3C[C@H]43)ccc(Cl)c12)S(C)(=O)=O)c1ncccc1COP(=O)(O)O [Compound 53, (2-(3-(4-chloro-7-(2-((S)-1-(2-((3bS,4aR)-5,5-difluoro-3-(trifluoromethyl)-3b,4,4a,5-tetrahydro-1H-cyclopropa[3,4]cyclopenta[1,2-c]pyrazol-1-yl)acetamido)-2-(3,5-difluorophenyl)ethyl)-6-(3-methyl-3-(methylsulfonyl)but-1-yn-1-yl)pyridin-3-yl)-1-(2,2,2-trifluoroethyl)-1H-indazol-3-yl)-1-methyl-3-(methylsulfonyl)ureido)pyridin-3-yl)methyl dihydrogen phosphate]			5%				2/78 μM	2/78 μM	391 µg/mL	958 µg/mL
